Our source for the IC50 values is US10301280B2 (Plexxikon Inc., priority 2012, dated 2019).

A word on the IC50: it is the point on the concentration scale where inhibition reaches its midpoint.

This assay concerns BaF3-FL KIT D816V or BaF3-FL KIT V560G/D816V cell line. Briefly: Cell-based assays of c-Kit mutant kinase activity (cell growth, ATPlite). The settings on record: at least one of the c-kit cell assays of Example 26. A digest of the protocol: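 IC50 derived from ATP-content luminescence (ATPlite) after three-day compound exposure at 37° C., 5% CO2. Cells: BaF3 rendered growth-dependent on full-length human KIT D816V or V560G/D816V, 1×10^4 per well, RPMI plus 10% FBS; 8 points, 1:3 steps, maximum 10 μM final, 0.2% DMSO.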
(Cellular ATP, detected with luciferase, serves as a proxy for viable cell number.)
Compound `Cc1c(-c2ccccc2)n[nH]c1C(=O)Nc1cnc2[nH]c(-c3ccccc3)cc2c1` [P-2008, 4-methyl-3-phenyl-N-(2-phenyl-1H-pyrrolo[2,3-b]pyridin-5-yl)-1H-pyrazole-5-carboxamide] had a half-inhibitory concentration (IC50) below 10 µM.
In the case of `Cc1[nH]nc(C(=O)Nc2cnc3[nH]c(-c4cnn(C5COC5)c4C)cc3c2)c1C` [P-2196, 4,5-dimethyl-N-(2-(5-methyl-1-(oxetan-3-yl)-1H-pyrazol-4-yl)-1H-pyrrolo[2,3-b]pyridin-5-yl)-1H-pyrazole-3-carboxamide] it was below 10 µM; in that of `CC(=O)Nc1ccc(-c2cc3cc(NC(=O)c4[nH]nc(C)c4C)cnc3[nH]2)cc1` [P-2137, N-[2-(4-acetamidophenyl)-1H-pyrrolo[2,3-b]pyridin-5-yl]-3,4-dimethyl-1H-pyrazole-5-carboxamide], below 10 µM; in that of `Cc1n[nH]c(C(=O)Nc2cnc3[nH]c(-c4ccnc(N5CCOCC5)c4F)cc3c2)c1C` [P-2082, N-[2-(3-fluoro-2-morpholino-4-pyridyl)-1H-pyrrolo[2,3-b]pyridin-5-yl]-3,4-dimethyl-1H-pyrazole-5-carboxamide], below 10 µM.
With `Cc1cc(-c2cc3cc(NC(=O)c4n[nH]c(C)c4C)cnc3[nH]2)ccn1` [P-2246, 4,5-dimethyl-N-(2-(2-methylpyridin-4-yl)-1H-pyrrolo[2,3-b]pyridin-5-yl)-1H-pyrazole-3-carboxamide] the figure was below 10 µM; with `Cc1[nH]nc(C(=O)Nc2cnc3[nH]c(-c4ccnc(C(=O)N(C)C)c4)cc3c2)c1C` [P-2224, 4-(5-(4,5-dimethyl-1H-pyrazole-3-carboxamido)-1H-pyrrolo[2,3-b]pyridin-2-yl)-N,N-dimethylpicolinamide], below 10 µM.
In the case of `Cc1n[nH]c(C(=O)Nc2cnc3[nH]c(-c4cccc5c4OCCO5)cc3c2)c1C` [P-2305, N-[2-(2,3-dihydro-1,4-benzodioxin-5-yl)-1H-pyrrolo[2,3-b]pyridin-5-yl]-3,4-dimethyl-1H-pyrazole-5-carboxamide] it was below 10 µM; in that of `Cc1[nH]nc(C(=O)Nc2cnc3[nH]c(-c4ccnc(C(=O)NC(C)C)c4)cc3c2)c1C` [P-2229, 4-(5-(4,5-dimethyl-1H-pyrazole-3-carboxamido)-1H-pyrrolo[2,3-b]pyridin-2-yl)-N-isopropylpicolinamide], below 10 µM; in that of `Cc1cccc(Cl)c1C(=O)Nc1cnc2[nH]c(-c3ccc(F)cc3)cc2c1` [P-2022, 2-chloro-N-[2-(4-fluorophenyl)-1H-pyrrolo[2,3-b]pyridin-5-yl]-6-methyl-benzamide], below 10 µM.
As to `COCCCOc1ccc(-c2cc3cc(NC(=O)c4[nH]nc(C)c4C)cnc3[nH]2)cc1` [P-2102, N-[2-[4-(3-methoxypropoxy)phenyl]-1H-pyrrolo[2,3-b]pyridin-5-yl]-3,4-dimethyl-1H-pyrazole-5-carboxamide], the IC50 was below 10 µM.
With `Cc1[nH]nc(C(=O)Nc2cnc3[nH]c(-c4ccnc(C5CCN(C(=O)C6CC6)CC5)c4)cc3c2)c1C` [P-2207, N-(2-(2-(1-(cyclopropanecarbonyl)piperidin-4-yl)pyridin-4-yl)-1H-pyrrolo[2,3-b]pyridin-5-yl)-4,5-dimethyl-1H-pyrazole-3-carboxamide] the figure was below 10 µM; with `Cc1cc(Cl)ccc1-c1cc2cc(NC(=O)c3n[nH]c(C)c3C)cnc2[nH]1` [P-2258], below 10 µM; with `Cc1[nH]nc(C(=O)Nc2cnc3[nH]c(-c4cnn(C5CNC5)c4C)cc3c2)c1C` [P-2197, N-(2-(1-(azetidin-3-yl)-5-methyl-1H-pyrazol-4-yl)-1H-pyrrolo[2,3-b]pyridin-5-yl)-4,5-dimethyl-1H-pyrazole-3-carboxamide], below 10 µM.
In the case of `Cc1[nH]nc(C(=O)Nc2cnc3[nH]c(-c4ccnc(NC(=O)C5CC5)c4Cl)cc3c2)c1C` [P-2205, N-(2-(3-chloro-2-(cyclopropanecarboxamido)pyridin-4-yl)-1H-pyrrolo[2,3-b]pyridin-5-yl)-4,5-dimethyl-1H-pyrazole-3-carboxamide] it was below 10 µM; in that of `Cc1n[nH]c(C(=O)Nc2cnc3[nH]c(-c4cccnc4)cc3c2)c1C` [P-2088, 3,4-dimethyl-N-[2-(3-pyridyl)-1H-pyrrolo[2,3-b]pyridin-5-yl]-1H-pyrazole-5-carboxamide], below 10 µM; in that of `Cc1n[nH]c(C(=O)Nc2cnc3[nH]c(-c4cccc(F)c4)cc3c2)c1C` [P-2094, N-[2-(3-fluorophenyl)-1H-pyrrolo[2,3-b]pyridin-5-yl]-3,4-dimethyl-1H-pyrazole-5-carboxamide], below 10 µM.
On to `Cc1[nH]nc(C(=O)Nc2cnc3[nH]c(-c4ccccc4OC(F)F)cc3c2)c1C` [P-2263, N-(2-(2-(difluoromethoxy)phenyl)-1H-pyrrolo[2,3-b]pyridin-5-yl)-4,5-dimethyl-1H-pyrazole-3-carboxamide], for which the IC50 is below 10 µM.
`Cc1[nH]nc(C(=O)Nc2cnc3[nH]c(-c4ccnc(C(=O)N5CCSCC5)c4)cc3c2)c1C` [P-2219, 4,5-dimethyl-N-(2-(2-(thiomorpholine-4-carbonyl)pyridin-4-yl)-1H-pyrrolo[2,3-b]pyridin-5-yl)-1H-pyrazole-3-carboxamide] returned an IC50 below 10 µM.
With `Cc1[nH]nc(C(=O)Nc2cnc3[nH]c(-c4cnn(C5CCNCC5)c4C)cc3c2)c1C` [P-2198, 4,5-dimethyl-N-(2-(5-methyl-1-(piperidin-4-yl)-1H-pyrazol-4-yl)-1H-pyrrolo[2,3-b]pyridin-5-yl)-1H-pyrazole-3-carboxamide] the figure was below 10 µM; with `Cc1n[nH]c(C(=O)Nc2cnc3[nH]c(-c4ccc(C(=O)N5CCCC5)cc4)cc3c2)c1C` [P-2101, 3,4-dimethyl-N-[2-[4-(pyrrolidine-1-carbonyl)phenyl]-1H-pyrrolo[2,3-b]pyridin-5-yl]-1H-pyrazole-5-carboxamide], below 10 µM.
With `COc1cccc(-c2cc3cc(NC(=O)c4[nH]nc(C)c4C)cnc3[nH]2)c1F` [P-2129, N-[2-(2-fluoro-3-methoxy-phenyl)-1H-pyrrolo[2,3-b]pyridin-5-yl]-3,4-dimethyl-1H-pyrazole-5-carboxamide] the figure was below 10 µM; with `Cc1[nH]nc(C(=O)Nc2cnc3[nH]c(-c4ccncc4Cl)cc3c2)c1C` [P-2250, N-(2-(3-chloropyridin-4-yl)-1H-pyrrolo[2,3-b]pyridin-5-yl)-4,5-dimethyl-1H-pyrazole-3-carboxamide], below 10 µM; with `COc1nccc(-c2cc3cc(NC(=O)c4n[nH]c(C)c4C)cnc3[nH]2)c1Cl` [P-2249, N-(2-(3-chloro-2-methoxypyridin-4-yl)-1H-pyrrolo[2,3-b]pyridin-5-yl)-4,5-dimethyl-1H-pyrazole-3-carboxamide], below 10 µM.
With `Cc1n[nH]c(C(=O)Nc2cnc3[nH]c(-c4ccccc4F)cc3c2)c1C` [P-2093, N-[2-(2-fluorophenyl)-1H-pyrrolo[2,3-b]pyridin-5-yl]-3,4-dimethyl-1H-pyrazole-5-carboxamide] the figure was below 10 µM; with `Cc1[nH]nc(C(=O)Nc2cnc3[nH]cc(-c4ccnc(N5CCOCC5)c4)c3c2)c1C` [P-2193, 4,5-dimethyl-N-(3-(2-morpholinopyridin-4-yl)-1H-pyrrolo[2,3-b]pyridin-5-yl)-1H-pyrazole-3-carboxamide], below 10 µM; with `Cc1ncccc1-c1cc2cc(NC(=O)c3[nH]nc(C)c3C)cnc2[nH]1` [P-2136, 3,4-dimethyl-N-[2-(2-methyl-3-pyridyl)-1H-pyrrolo[2,3-b]pyridin-5-yl]-1H-pyrazole-5-carboxamide], below 10 µM.
For the compound `Cc1[nH]nc(C(=O)Nc2cnc3[nH]c(-c4ccnc(NC5CC5)c4)cc3c2)c1C` [P-2204, N-(2-(2-(cyclopropylamino)pyridin-4-yl)-1H-pyrrolo[2,3-b]pyridin-5-yl)-4,5-dimethyl-1H-pyrazole-3-carboxamide], the IC50 was below 10 µM.
In the case of `Cc1ncc(-c2cc3cc(NC(=O)c4[nH]nc(C)c4C)cnc3[nH]2)s1` [P-2091, 3,4-dimethyl-N-[2-(2-methylthiazol-5-yl)-1H-pyrrolo[2,3-b]pyridin-5-yl]-1H-pyrazole-5-carboxamide] it was below 10 µM.
In the case of `Cc1n[nH]c(C(=O)Nc2cnc3[nH]c(-c4cccc(C(=O)N5CCCC5)c4)cc3c2)c1C` [P-2107, 3,4-dimethyl-N-[2-[3-(pyrrolidine-1-carbonyl)phenyl]-1H-pyrrolo[2,3-b]pyridin-5-yl]-1H-pyrazole-5-carboxamide] it was below 10 µM.
With `Cc1n[nH]c(C(=O)Nc2cnc3[nH]c(-c4ccc(C(=O)N(C)C)cc4)cc3c2)c1C` [P-2085, N-[2-[4-(dimethylcarbamoyl)phenyl]-1H-pyrrolo[2,3-b]pyridin-5-yl]-3,4-dimethyl-1H-pyrazole-5-carboxamide] the figure was below 10 µM; with `Cc1cc(CNc2cnc3[nH]c(-c4ccc(F)cc4)cc3c2)[nH]n1` [P-2142, 2-(4-fluorophenyl)-N-[(5-methyl-1H-pyrazol-3-yl)methyl]-1H-pyrrolo[2,3-b]pyridin-5-amine], below 10 µM.
